Experimental data as given in ChEMBL document CHEMBL1201862, “PubChem BioAssay data set” (2004).
Where “and” joins values, the source holds several entries; their conditions need not be identical. Equal values may be shown once. Calls of active or inactive are those of the source.

Columns and labels:
[1] = target: Intestinal-type alkaline phosphatase (Mus musculus, UniProt P24822); experiment: PubChem AID 488785; assay type: functional
[2] = target: T1, Alkaline phosphatase, tissue-nonspecific isozyme (Homo sapiens, UniProt P05186); experiment: TNAP enzyme inhibition by screening hits, dose response, selectivity assay for mouse IAP inhibitor project, biochemical, human TNAP, uHTS hits (AID 488906); assay type: functional
T1 sequence (P05186 whole entry): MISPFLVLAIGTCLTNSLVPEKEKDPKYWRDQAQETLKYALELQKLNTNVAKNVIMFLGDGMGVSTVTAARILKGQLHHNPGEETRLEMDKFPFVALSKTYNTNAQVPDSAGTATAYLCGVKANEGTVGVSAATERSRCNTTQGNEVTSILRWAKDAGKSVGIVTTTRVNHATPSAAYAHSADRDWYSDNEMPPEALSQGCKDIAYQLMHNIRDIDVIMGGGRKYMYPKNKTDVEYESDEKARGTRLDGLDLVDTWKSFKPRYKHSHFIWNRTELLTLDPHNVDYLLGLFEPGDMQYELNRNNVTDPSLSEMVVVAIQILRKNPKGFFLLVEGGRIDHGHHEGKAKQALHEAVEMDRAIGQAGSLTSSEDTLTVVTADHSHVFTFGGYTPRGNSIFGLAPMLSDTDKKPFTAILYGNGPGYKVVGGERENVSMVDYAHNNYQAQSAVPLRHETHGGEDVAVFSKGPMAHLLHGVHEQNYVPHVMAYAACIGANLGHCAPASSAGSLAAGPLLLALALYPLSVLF

[3] = target: Intestinal-type alkaline phosphatase (Homo sapiens, UniProt P09923); experiment: inhibition of human intestinal alkaline phosphatase – biochemical, dose response (AID 488876); assay type: functional
[4] = NIH-3T3 fibroblast cytotoxicity, dose response, cytotoxicity control, cell-based, fluorescence, Alamar Blue, secondary assay (AID 2327); assay type: functional;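 further: NIH-3T3 mouse fibroblasts cultured with fluconazole at 8 µg/mL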
[5] = target: Sphingosine 1-phosphate receptor 1 (Homo sapiens, UniProt P21453); experiment: Fluorescence-based counterscreen assay for S1P4 agonists: Cell-based dose response high throughput screening assay to identify agonists of the Sphingosine 1-Phosphate Receptor 1 (S1P1). [Related pubchem assays (depositor defined):AID1509, AID1523, AID1801, AID463107, AID463118, AID463119, AID463122, AID463123, AID463129, AID463225, AID504400, AID504460]; assay type: functional
[6] = C. albicans growth with fluconazole, confirmation, fluorescence, retest (AID 2467); assay type: functional, cell-based
[7] = target: Sphingosine 1-phosphate receptor 4 (Homo sapiens, UniProt O95977); experiment: Fluorescence dose response cell-based high throughput screening assay for agonists of the Sphingosine 1-Phosphate Receptor 4 (S1P4). [Related pubchem assays: 1509 (Primary screen.), 1523 (Confirmation screen in triplicates.)]; assay type: functional
[8] = target: Sphingosine 1-phosphate receptor 2 (Homo sapiens, UniProt O95136); experiment: Dose Response Cell Based Assay for Agonists of the S1P2 Receptor. [Related pubchem assays: 729, 736, 843 ]; assay type: functional
[9] = target: Tumor necrosis factor (Homo sapiens, UniProt P01375); experiment: TNFa-triggered NF-kB activation inhibitors, SAR follow-up, cell-based, revised (AID 2337); assay type: functional
[10] = target: Nucleotide-binding oligomerization domain-containing protein 1 (Homo sapiens, UniProt Q9Y239); experiment: NOD1 signaling inhibitors, SAR follow-up, revised (AID 2333); assay type: functional
[11] = tested on: HEK293; experiment: cells; conditions: Homo sapiens;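 further: cells exposed to compound for 14 hours overnight before viability readout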
[12] = target: Peroxisome proliferator-activated receptor gamma/Nuclear receptor coactivator 1 (Homo sapiens, UniProt P37231); experiment: (§1) TR-FRET dose response biochemical High Throughput Screening assay for agonists of the steroid receptor coactivator 1 (SRC-1) recruitment by the peroxisome proliferator-activated receptor gamma (PPAR gamma): non-selective agonists. [Related pubchem assays (depositor defined):AID1300, AID1808, AID504735, AID631]; assay type: protein assay
[13] = target: Peroxisome proliferator-activated receptor gamma/Nuclear receptor coactivator 3 (Homo sapiens, UniProt P37231); experiment: as §1, with “3 (SRC-3)” for “1 (SRC-1)”, “assays: 1301 (Confirmation screen.), 1048 (Primary screen.)]” for “assays (depositor defined):AID1300, AID1808, AID504735, AID631]”; assay type: functional
[14] = target: Peroxisome proliferator-activated receptor gamma/Nuclear receptor coactivator 2 (Homo sapiens, UniProt P37231); experiment: TR-FRET dose response biochemical High Throughput Screening assay for agonists of the steroid receptor coactivator 2 (SRC-2) recruitment by the peroxisome proliferator-activated receptor gamma (PPAR gamma): non-selective agonists. [Related pubchem assays: 1297, 1032 ]; assay type: functional
[15] = target: Cytochrome P450 3A4 (Homo sapiens, UniProt P08684);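 further: CYP3A4 tested as one member of a cytochrome P450 panel screen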
[16] = target: T2, E3 ubiquitin-protein ligase XIAP (Homo sapiens, UniProt P98170); experiment: SAR analysis of Antagonists of XIAP-Bir3 domain of IAP-family anti-apoptotic proteins. [Related pubchem assays (depositor defined):AID1018, AID1449, AID1513, AID1514, AID1638]
[17] = target: T2, E3 ubiquitin-protein ligase XIAP; experiment: SAR analysis of Antagonists of IAP-family anti-apoptotic proteins. [Related pubchem assays (depositor defined):AID1018, AID1449, AID1513, AID1514, AID1638]
[18] = target: Bcl-2-related protein A1 (Mus musculus, UniProt Q07440); assay type: functional;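 further: confirmatory dose–response counterscreen on Bfl-1, used to check hits from a UBC13 polyubiquitin inhibitor campaign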
[19] = target: T3, Ubiquitin-conjugating enzyme E2 N (Homo sapiens, UniProt P61088); assay type: functional
T3 sequence (P61088 whole entry): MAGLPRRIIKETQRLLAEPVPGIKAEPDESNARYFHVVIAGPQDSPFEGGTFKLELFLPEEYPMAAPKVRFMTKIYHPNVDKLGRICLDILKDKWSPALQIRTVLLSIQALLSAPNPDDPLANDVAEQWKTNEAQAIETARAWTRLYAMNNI

[20] = target: T4, Short transient receptor potential channel 4 (Mus musculus, UniProt Q9QUQ5); experiment: mouse TRPC4 channel activators, dose response, cell-based, HEK293 TRPC4/mu-opioid, Fluo-4 calcium (AID 434937); assay type: functional
T4 sequence (Q9QUQ5 whole entry): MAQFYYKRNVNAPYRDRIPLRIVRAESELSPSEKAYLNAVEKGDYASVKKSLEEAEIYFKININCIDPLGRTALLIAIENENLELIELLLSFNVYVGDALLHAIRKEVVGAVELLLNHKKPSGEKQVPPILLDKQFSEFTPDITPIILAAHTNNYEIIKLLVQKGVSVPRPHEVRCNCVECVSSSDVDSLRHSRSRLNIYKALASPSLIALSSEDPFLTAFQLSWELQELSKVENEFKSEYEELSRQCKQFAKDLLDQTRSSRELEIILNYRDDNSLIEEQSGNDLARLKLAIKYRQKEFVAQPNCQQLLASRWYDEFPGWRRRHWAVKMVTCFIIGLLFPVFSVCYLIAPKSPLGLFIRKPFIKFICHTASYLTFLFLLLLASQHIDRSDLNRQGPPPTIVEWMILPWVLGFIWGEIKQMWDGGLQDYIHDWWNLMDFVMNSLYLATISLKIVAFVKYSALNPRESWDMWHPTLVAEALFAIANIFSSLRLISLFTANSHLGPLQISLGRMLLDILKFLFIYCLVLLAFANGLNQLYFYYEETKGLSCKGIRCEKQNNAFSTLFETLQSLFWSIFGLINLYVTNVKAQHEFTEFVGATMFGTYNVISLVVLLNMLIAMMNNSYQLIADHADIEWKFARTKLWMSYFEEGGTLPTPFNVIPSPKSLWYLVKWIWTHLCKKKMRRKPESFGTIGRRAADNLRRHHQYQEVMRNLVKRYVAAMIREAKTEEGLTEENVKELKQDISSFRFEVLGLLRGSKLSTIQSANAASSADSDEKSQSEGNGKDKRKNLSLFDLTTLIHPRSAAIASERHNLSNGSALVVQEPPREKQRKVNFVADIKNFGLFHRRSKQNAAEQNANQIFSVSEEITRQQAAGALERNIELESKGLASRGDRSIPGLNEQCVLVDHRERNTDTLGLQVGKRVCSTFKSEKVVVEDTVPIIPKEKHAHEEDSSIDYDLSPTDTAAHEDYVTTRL

[21] = target: T3, Ubiquitin-conjugating enzyme E2 N; assay type: functional; remark: listed apart in the source
[22] = target: Nonstructural protein 1 (Influenza A virus, UniProt Q194T2); assay type: functional, Influenza A virus (A/California/07/2009(H1N1))
[23] = target: Type-1 angiotensin II receptor (Homo sapiens, UniProt P30556); experiment: AT1 receptor agonists, dose response, selectivity assay for APJ receptor agonist project, cell-based, uHTS hits (AID 488865); assay type: functional;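 further: beta-arrestin recruitment to AT1 measured by enzyme fragment complementation luminescence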
[24] = target: Delta-type opioid receptor (Homo sapiens, UniProt P41143); experiment: Counterscreen for agonists of heterodimerization of the mu 1 (OPRM1) and delta 1 (OPRD1) opioid receptors: Luminescence-based cell-based high throughput dose response assay to identify agonists of OPRD1 homodimerization. [Related pubchem assays (depositor defined):AID504326, AID504355, AID504692, AID504904, AID504905]; assay type: functional
[25] = target: Mu-type opioid receptor (Homo sapiens, UniProt P35372); experiment: Counterscreen for agonists of heterodimerization of the mu 1 (OPRM1) and delta 1 (OPRD1) opioid receptors: Luminescence-based cell-based high throughput dose response assay to identify agonists of OPRM1 homodimerization.; assay type: functional;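 further: U2OS cells expressing OPRM1 and beta-arrestin as split beta-galactosidase partners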
[26] = target: 5-hydroxytryptamine receptor 5A (Homo sapiens, UniProt P47898); experiment: Counterscreen for agonists of OPRM1-OPRD1 heterodimerization: luminescence-based cell-based high throughput dose response assay to identify agonists of 5-hydroxytryptamine (serotonin) 5A receptor (HTR5A). [Related pubchem assays (depositor defined):AID504326, AID504355, AID504692, AID504904, AID504905]; assay type: functional
[27] = tested on: INS1; experiment: beta cell apoptosis inhibitors, cytokine rescue, dose response, luminescence, retest (AID 449756); assay type: functional, cell-based; conditions: Rattus norvegicus;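 further: cell death triggered by IL-1 beta plus TNF-alpha plus IFN-gamma mixture; protective hits raise ATP signal compared with cytokine alone wells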

T2 sequence (P98170 whole entry, the tested form may be a part): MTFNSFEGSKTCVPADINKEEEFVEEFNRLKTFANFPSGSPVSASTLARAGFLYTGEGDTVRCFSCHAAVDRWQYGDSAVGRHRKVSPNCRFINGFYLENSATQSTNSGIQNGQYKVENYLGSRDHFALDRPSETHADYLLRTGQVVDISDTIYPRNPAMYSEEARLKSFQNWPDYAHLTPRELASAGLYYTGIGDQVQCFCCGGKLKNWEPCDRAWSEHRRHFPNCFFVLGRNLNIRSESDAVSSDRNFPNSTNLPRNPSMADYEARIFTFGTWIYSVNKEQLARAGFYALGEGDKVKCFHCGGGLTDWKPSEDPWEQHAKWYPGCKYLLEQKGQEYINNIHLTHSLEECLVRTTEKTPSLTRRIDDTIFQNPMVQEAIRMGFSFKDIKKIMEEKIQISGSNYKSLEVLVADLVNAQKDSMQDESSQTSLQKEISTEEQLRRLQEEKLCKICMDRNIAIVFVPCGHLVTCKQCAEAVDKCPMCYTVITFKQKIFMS
Chain of Tumor necrosis factor (P01375 whole entry, the tested form may be a part): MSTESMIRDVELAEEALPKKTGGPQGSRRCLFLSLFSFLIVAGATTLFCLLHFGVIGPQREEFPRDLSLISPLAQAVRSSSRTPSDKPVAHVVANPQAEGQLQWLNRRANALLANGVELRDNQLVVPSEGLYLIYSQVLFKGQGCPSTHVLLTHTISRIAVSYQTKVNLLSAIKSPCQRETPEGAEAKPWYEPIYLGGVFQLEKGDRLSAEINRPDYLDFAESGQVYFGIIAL
Chain of Nucleotide-binding oligomerization domain-containing protein 1 (Q9Y239 whole entry, the tested form may be a part): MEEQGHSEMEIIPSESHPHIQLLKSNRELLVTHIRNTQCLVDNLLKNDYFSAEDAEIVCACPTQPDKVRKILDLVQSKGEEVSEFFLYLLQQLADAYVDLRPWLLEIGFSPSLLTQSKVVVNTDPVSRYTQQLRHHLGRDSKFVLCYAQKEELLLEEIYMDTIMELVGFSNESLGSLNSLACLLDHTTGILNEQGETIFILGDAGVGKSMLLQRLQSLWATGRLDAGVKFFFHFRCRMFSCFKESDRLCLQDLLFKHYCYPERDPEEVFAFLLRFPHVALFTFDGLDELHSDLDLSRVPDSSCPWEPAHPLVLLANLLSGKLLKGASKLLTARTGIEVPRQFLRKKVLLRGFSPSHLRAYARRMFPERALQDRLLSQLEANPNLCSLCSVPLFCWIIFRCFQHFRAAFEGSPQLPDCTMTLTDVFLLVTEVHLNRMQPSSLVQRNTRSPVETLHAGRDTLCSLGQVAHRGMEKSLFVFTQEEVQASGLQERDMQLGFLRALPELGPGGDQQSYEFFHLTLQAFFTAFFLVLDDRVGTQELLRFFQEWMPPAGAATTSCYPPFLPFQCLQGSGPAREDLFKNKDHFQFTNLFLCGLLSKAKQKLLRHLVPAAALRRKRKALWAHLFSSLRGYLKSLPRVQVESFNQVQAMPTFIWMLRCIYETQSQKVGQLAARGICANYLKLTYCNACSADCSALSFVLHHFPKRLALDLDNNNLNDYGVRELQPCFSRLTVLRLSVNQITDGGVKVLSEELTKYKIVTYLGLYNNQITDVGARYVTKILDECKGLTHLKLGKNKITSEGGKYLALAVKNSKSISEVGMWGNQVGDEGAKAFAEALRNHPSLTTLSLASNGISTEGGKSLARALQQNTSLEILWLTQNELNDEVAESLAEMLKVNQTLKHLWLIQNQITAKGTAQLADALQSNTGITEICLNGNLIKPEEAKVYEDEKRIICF
Chain of Sphingosine 1-phosphate receptor 4 (O95977 whole entry): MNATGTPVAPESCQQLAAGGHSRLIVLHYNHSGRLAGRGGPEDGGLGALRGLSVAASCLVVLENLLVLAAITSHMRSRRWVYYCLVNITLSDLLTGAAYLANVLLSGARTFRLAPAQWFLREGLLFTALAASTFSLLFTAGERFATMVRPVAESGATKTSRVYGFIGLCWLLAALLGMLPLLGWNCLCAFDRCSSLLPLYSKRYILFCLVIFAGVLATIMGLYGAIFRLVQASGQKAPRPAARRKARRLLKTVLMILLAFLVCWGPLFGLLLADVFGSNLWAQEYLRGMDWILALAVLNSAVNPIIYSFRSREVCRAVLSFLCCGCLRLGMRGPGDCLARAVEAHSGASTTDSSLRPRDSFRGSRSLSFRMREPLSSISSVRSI
Chain of Delta-type opioid receptor (P41143 whole entry): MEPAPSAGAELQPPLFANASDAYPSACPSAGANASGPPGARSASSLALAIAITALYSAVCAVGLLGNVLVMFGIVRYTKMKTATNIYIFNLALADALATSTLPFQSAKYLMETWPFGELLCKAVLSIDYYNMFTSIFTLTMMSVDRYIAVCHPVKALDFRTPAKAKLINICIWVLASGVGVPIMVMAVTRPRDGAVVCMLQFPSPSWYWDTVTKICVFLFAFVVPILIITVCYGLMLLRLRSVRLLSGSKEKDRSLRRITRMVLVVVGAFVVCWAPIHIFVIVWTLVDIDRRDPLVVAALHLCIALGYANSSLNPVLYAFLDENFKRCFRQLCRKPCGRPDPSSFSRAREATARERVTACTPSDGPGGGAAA
Chain of Peroxisome proliferator-activated receptor gamma/Nuclear receptor coactivator 1 (P37231 whole entry): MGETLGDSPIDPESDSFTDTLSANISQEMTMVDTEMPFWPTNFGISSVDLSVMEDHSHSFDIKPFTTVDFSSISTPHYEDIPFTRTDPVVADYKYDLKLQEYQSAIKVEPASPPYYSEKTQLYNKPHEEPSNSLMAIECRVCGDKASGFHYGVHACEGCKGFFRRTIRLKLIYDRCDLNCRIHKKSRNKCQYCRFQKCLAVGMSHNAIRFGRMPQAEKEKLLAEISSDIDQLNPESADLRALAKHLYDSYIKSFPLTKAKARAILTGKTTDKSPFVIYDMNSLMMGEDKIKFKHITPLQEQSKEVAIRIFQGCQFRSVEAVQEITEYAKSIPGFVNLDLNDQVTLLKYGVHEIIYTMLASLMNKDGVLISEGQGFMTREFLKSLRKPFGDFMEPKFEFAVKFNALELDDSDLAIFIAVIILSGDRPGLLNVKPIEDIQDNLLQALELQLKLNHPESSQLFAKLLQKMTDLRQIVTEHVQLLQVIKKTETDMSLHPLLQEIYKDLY
Chain of Peroxisome proliferator-activated receptor gamma/Nuclear receptor coactivator 1 (Q15788 whole entry, further chain): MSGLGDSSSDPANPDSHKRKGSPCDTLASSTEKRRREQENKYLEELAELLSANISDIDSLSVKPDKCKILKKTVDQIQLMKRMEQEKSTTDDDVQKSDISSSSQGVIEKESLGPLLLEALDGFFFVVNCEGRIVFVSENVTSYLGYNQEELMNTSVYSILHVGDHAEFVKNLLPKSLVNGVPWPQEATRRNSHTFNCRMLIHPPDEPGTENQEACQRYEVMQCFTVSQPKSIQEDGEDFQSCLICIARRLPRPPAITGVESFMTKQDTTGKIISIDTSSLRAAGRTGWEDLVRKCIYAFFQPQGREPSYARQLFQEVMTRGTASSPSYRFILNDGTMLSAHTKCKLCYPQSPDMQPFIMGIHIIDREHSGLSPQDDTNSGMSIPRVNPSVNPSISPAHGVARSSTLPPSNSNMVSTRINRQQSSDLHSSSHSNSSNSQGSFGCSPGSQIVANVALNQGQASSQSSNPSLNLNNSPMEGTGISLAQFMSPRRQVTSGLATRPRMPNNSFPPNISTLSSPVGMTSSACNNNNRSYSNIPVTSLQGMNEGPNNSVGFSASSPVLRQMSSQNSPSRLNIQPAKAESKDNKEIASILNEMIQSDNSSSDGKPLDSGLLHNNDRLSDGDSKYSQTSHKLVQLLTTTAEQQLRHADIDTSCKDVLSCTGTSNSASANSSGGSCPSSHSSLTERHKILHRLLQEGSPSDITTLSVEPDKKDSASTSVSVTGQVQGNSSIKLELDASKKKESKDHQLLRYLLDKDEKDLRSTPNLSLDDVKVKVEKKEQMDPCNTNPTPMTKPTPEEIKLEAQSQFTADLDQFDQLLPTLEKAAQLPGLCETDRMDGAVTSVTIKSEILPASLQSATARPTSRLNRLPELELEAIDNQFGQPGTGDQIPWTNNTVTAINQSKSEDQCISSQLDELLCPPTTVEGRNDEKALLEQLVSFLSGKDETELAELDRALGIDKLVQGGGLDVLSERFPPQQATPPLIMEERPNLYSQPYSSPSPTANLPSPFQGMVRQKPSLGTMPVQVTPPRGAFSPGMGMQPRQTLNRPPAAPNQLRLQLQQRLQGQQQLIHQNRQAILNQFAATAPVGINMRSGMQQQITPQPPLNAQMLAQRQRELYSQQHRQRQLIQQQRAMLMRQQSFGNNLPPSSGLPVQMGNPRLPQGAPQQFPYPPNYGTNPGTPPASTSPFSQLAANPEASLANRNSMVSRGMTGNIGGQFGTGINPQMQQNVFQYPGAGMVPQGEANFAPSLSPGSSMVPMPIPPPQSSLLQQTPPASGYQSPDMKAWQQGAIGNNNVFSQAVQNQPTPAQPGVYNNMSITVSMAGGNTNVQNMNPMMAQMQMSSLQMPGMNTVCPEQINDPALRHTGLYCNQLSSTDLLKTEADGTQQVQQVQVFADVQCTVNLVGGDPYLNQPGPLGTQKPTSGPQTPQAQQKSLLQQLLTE
Chain of Type-1 angiotensin II receptor (P30556 whole entry, the tested form may be a part): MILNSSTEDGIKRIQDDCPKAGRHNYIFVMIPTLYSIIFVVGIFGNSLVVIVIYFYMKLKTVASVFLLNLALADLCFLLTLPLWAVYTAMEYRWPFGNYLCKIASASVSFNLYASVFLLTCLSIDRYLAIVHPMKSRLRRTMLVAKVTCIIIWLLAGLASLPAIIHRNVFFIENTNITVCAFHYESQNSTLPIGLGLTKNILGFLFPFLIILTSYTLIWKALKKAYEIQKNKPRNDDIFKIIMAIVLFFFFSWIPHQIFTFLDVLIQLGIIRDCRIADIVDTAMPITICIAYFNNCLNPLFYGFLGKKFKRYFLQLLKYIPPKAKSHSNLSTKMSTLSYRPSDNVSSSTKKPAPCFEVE
Chain of Nonstructural protein 1 (Q194T2 whole entry, the tested form may be a part): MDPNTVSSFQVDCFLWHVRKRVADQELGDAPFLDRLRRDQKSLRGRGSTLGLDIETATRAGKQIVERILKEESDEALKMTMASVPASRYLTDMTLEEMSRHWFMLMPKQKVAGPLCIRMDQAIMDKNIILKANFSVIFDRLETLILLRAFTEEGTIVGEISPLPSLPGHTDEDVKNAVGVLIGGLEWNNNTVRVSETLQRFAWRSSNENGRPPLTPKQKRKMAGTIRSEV

## COC(=O)c1ccc(NS(=O)(=O)c2ccc3[nH]c(=O)oc3c2)cc1
[1]
  IC50: 2.6 µM (active)
[2]
  IC50: > 100 µM (inactive)
[3]
  IC50: > 100 µM (inactive)

## Cc1ccccc1-n1c(=O)c(C#N)cc2c(=O)n3ccccc3nc21
[4]
  EC50: > 160 µM (inactive)
[5]
  EC50: 7.88 µM (active)
[6]
  EC50: > 38 µM (not active)
[7]
  EC50: 2.58 µM (active)
[8]
  EC50: 7.45 µM (active)

## COC(=O)CC1=NN(c2nc3ccccc3s2)C(=O)/C1=C(/C)Nc1ccc(OC)cc1
[9]
  IC50: < 39.1 nM (active) and 4.12 µM (active)
[10]
  IC50: 260 nM (active) and 2.38 µM (active)
[11]
  IC50: > 20 µM (inactive)

## CCOC(=O)CSc1cc(=O)n(C)c2cc(Cl)ccc12
[12]
  EC50: > 79.4 µM (inactive)
[13]
  EC50: > 79.4 µM (not active)
[14]
  EC50: > 79.4 µM (not active)
[15]
  AC50: 22.4 µM (inconclusive)

## CC[C@H](NC(=O)[C@H](C)NC)C(=O)N1CCC[C@H]1C(=O)NC1CCCc2ccccc21 (some centres not stated)
[16]
  IC50: 530 nM (active) and 980 nM (active)
[17]
  IC50: 9.7 µM (active) and 13.7 µM (active)

## Cc1ccc2nc(N(CCCN(C)C)C(=O)c3ccc(S(=O)(=O)N4CCc5ccccc5C4)cc3)sc2c1
[18]
  IC50: > 20 µM (inactive)
[19]
  IC50: 11 µM (active)
[20]
  EC50: 3.35 µM (active)
[21]
  IC50: 7.23 µM (active)
[22]
  IC50: > 50 µM (active)
[23]
  EC50: 57.8 µM (inactive)
[24]
  EC50: > 92.5 µM (inactive)
[25]
  EC50: 10.2 µM (inactive)
[26]
  EC50: > 92.5 µM (inactive)
[27]
  AC50: 6.05 µM (active)
